The subject of experiment [1] is Salmonella Typhimurium arginine-binding protein STM4351 variant E37A with cpYFP inserted at the 200/203 site (STM4351-200/203-E37A-cpYFP), SEQ ID NO: 5. The experiment is described as follows: Fluorescence response and titration of purified probe with arginine. As to the method:
(§1) • 1. Transform the pET28a-based arginine probe plasmid into BL21(DE3), culture overnight in an inverted manner, pick a clone from the plate into a 250 ml conical flask, place in a 37 °C shaker, culture at 220 rpm until OD = 0.4-0.8, add IPTG (1 M) at 1/1000 (v/v), and induce expression at 18 °C for 24-36 h. • 2. After induction expression, collect the bacteria by centrifugation at 4000 rpm for 30 minutes, add 50 mM phosphate buffer to resuspend the bacterial pellet, and ultrasonically disrupt until the bacteria are clarified. Centrifuge at 9600 rpm at 4 °C for 20 minutes. • 3. The centrifuged supernatant is purified by a self-assembled nickel column affinity chromatography column to obtain the protein, and the protein after nickel column affinity chromatography is then passed through a self-assembled desalting column to obtain the protein dissolved in 20 mM MOPS buffer (pH 7.4) or phosphate buffer PBS. • 4. The purified arginine-binding protein mutant protein is identified by SDS-PAGE, and the probe is diluted with assay buffer (100 mM HEPES, 100 mM NaCl, pH 7.3) or phosphate buffer PBS to a final concentration of 5-10 µM protein solution. Prepare arginine into a stock solution with a final concentration of 1 M using assay buffer (20 mM MOPS, pH 7.4) or phosphate buffer PBS. • 5. Take 100 µl of 5 µM protein solution, incubate at 37 °C for 5 min, add arginine respectively and mix to a final concentration of 100 mM, and measure the light absorption of the protein at 340 nm using a multifunctional fluorescence microplate reader. • 6. Take 100 µl of 1 µM fluorescent probe solution, incubate at 37 °C for 5 min, add arginine for titration, and measure the fluorescence intensity of the protein at 528 nm emission after 485 nm fluorescence excitation. The measurement of fluorescence excitation and emission of samples is completed using a multifunctional fluorescence microplate reader. • 7. Take 100 µl of 1 µM fluorescent probe solution, incubate at 37 °C for 5 min, add arginine, and measure the absorption spectrum and fluorescence spectrum of the probe protein. The measurement of absorption spectrum and fluorescence spectrum of samples is completed by a spectrophotometer and a fluorescence spectrophotometer.
Screen the purified STM4351-cpYFP fusion protein for arginine response, and divide the detection signal of the fusion fluorescent protein containing 100 mM arginine by the detection signal of the fusion fluorescent protein without arginine. […]
Purify the mutant STM4351-200/203-E37A-cpYFP with high response multiple and good specificity. […] Determination of emission spectrum: fix the excitation wavelengths at 420 nm and 485 nm respectively, record the emission spectrum at […]-540 nm, and read once every 5 nm.

Experiment [2] deals with Salmonella Typhimurium arginine-binding protein STM4351 variant G89A with cpYFP inserted at the 200/203 site (STM4351-200/203-G89A-cpYFP), SEQ ID NO: 7. The description is as above. The protocol: • 1. Transform the pET28a-based arginine probe plasmid into BL21(DE3), culture overnight in an inverted manner, pick a clone from the plate into a 250 ml conical flask, place in a 37 °C shaker, culture at 220 rpm until OD = 0.4-0.8, add IPTG (1 M) at 1/1000 (v/v), and induce expression at 18 °C for 24-36 h. • 2. After induction expression, collect the bacteria by centrifugation at 4000 rpm for 30 minutes, add 50 mM phosphate buffer to resuspend the bacterial pellet, and ultrasonically disrupt until the bacteria are clarified. Centrifuge at 9600 rpm at 4 °C for 20 minutes. • 3. […] Take 100 µl of 5 µM protein solution, incubate at 37 °C for 5 min, add arginine respectively and mix to a final concentration of 100 mM, and measure the light absorption of the protein at 340 nm using a multifunctional fluorescence microplate reader. • 6. Take 100 µl of 1 µM fluorescent probe solution, incubate at 37 °C for 5 min, add arginine for titration, and measure the fluorescence intensity of the protein at 528 nm emission after 485 nm fluorescence excitation. The measurement of fluorescence excitation and emission of samples is completed using a multifunctional fluorescence microplate reader. • 7. Take 100 µl of 1 µM fluorescent probe solution, incubate at 37 °C for 5 min, add arginine, and measure the absorption spectrum and fluorescence spectrum of the probe protein. […]

For experiment [3], the system named is Salmonella Typhimurium arginine-binding protein STM4351 variant T138A with cpYFP inserted at the 200/203 site (STM4351-200/203-T138A-cpYFP), SEQ ID NO: 12. Described as above. As to the method: as §1, with “Prepare arginine into a stock solution with a final concentration of 1 M using assay buffer (20 mM MOPS, pH 7.4) or phosphate buffer PBS. • 5.” left out, “spectrophotometer. […]” for “spectrophotometer.”

In experiment [4] the test system is Salmonella Typhimurium arginine-binding protein STM4351 variant T32A with cpYFP inserted at the 200/203 site (STM4351-200/203-T32A-cpYFP), SEQ ID NO: 4. The experiment is described as follows: Fluorescence response of purified probe to arginine. Conditions: signal with 100 mM arginine divided by signal without arginine, Figure 2. As to the method: as §1, with “Prepare arginine into a stock solution with a final concentration of 1 M using assay buffer (20 mM MOPS, pH 7.4) or phosphate buffer PBS. • 5.” left out, “spectrophotometer. […]” for “spectrophotometer.”

Experiment [5] concerns Salmonella Typhimurium arginine-binding protein STM4351 variant D91A with cpYFP inserted at the 200/203 site (STM4351-200/203-D91A-cpYFP), SEQ ID NO: 9. The description is as above. Particulars: signal with 100 mM arginine divided by signal without arginine, Figure 2. The protocol:
as §1, with “Prepare arginine into a stock solution with a final concentration of 1 M using assay buffer (20 mM MOPS, pH 7.4) or phosphate buffer PBS. • 5.” left out, “spectrophotometer. […]” for “spectrophotometer.”

The subject of experiment [6] is Salmonella Typhimurium arginine-binding protein STM4351 variant H140A with cpYFP inserted at the 200/203 site (STM4351-200/203-H140A-cpYFP), SEQ ID NO: 14. Described as above. Particulars: signal with 100 mM arginine divided by signal without arginine, Figure 2. As to the method: as §1, with “Prepare arginine into a stock solution with a final concentration of 1 M using assay buffer (20 mM MOPS, pH 7.4) or phosphate buffer PBS. • 5.” left out, “spectrophotometer. […]” for “spectrophotometer.”

Setting [7] is: 500 mM arginine compared with 0 mM arginine, Figure 4.

Consider `N=C(N)NCCC[C@H](N)C(=O)O` [arginine, Arginine], for which the “fluorescence intensity under 420 nm excitation” value in experiment [1] (setting [7]) is given as “basically unchanged”. In experiment [1] (setting [7]), the “fluorescence intensity under 485 nm excitation” value is “about 15.0 times”. Besides, the response to arginine result in experiment [1] (arginine titration, Figure 3) is reported as “about 15 times”; in experiment [3] (signal with 100 mM arginine divided by signal without arginine, Figure 2), “exceeding 3 times”; in experiment [4] it was “exceeding 3 times”; in experiment [5] it was “exceeding 3 times”; in experiment [6] it was “exceeding 3 times”. In addition, the Kd in experiment [1] (arginine titration, Figure 3, saturation at 10 mM arginine, read-out: affinity for the substrate) is 170 to 210 µM; in experiment [2] (Figure 3, read-out: affinity for the substrate), 23.6 µM; in experiment [3] (arginine titration, Figure 3, read-out: affinity for the substrate), 190 µM. In addition, the “response to arginine, response multiple” value was “about 1.29” in experiment [2] (Figure 3) and around 3.14 in experiment [3] (arginine titration, Figure 3).
